The results in this text go back to US20050214738A1, “Conditional allele system” (priority 2003, published 2005).

“And” between values parts separate entries of the source, which are not always exact repeats. Equal values may be shown once. Bounds are passed on as bounds.

The target in one series is T1, KTF (Homo sapiens, UniProt P42345+P62942, W2101F).
T1 construct: The minimal FRB domain comprises amino acids 2025-2114 of human mTor; expressed in transfected cells; host or cells: COS1 cells
The series is described as follows: SeAP transcriptional switch assay, FRB mutant KTF. Format: cell-based. How it is done:
(§1) Drug efficacy was determined in a three-plasmid transcriptional switch reporter assay. ˜106 COS1 cells were coelectroporated with 2 μg of the DNA binding construct pBJ5-Gal4-FKBP(3), 2 μg pBJ5-VP16 (or the relevant mutant FRB) and 2 μg of the Gal4-SeAP reporter. Electroporation details are available upon request. Cells were immediately aliquoted to 2 or 3×96 well plates with flat bottoms. After 24 hours incubation media was supplemented with a rapalog in triplicate and in serial two fold dilutions. Following 24 hours further incubation, cells with media were wrapped carefully in plastic wrap and heated to 65° C. for two hours to inactivate endogenous phosphatases. 50 μL of media was transferred to a black 96 well plate (Costar 3915) and supplemented with 1 mM methylumbelliferrylphosphate (Sigma, St. Louis, Mo.) in 1M diethanolamine (pH 10.0 with carbonate). After 16 hours incubation at 37° C. SeAP activity was measured by fluorescence with a Spectamax M2 fluorometer (Molecular Devices, Sunnyvale, Calif.) with transmission set at 355 nm and emmission set at 460 nm. Data was analysed with Softmax Pro (Molecular Devices), Microsoft Excel and Prism 3 (GraphPad Software).

Another series has as its target T2, FRB (Homo sapiens, UniProt P42345+P62942).
T2 construct: The minimal FRB domain comprises amino acids 2025-2114 of human mTor; expressed in transfected cells; host or cells: COS-1 cells, electroporated with pBJ5-FRBVP, pBJ5-GF3E and pG5IL2SX
Briefly: SeAP reporter assay, dimerization of FRB-VP16 to FKBP3-GAL4DBD in COS-1 cells. Format: cell-based. The text has this:
Transcription activation by recruitment of chimeric transcriptional activation and DNA binding domains is described. COS-1 cells were electroporated with […] each of the following expression plasmids (Ho, S. N., Biggar, S. R., Spencer, D. M., Schreiber, S. L., and Crabtree, G. R. “Dimeric ligands define a role for transcriptional activation domains in reinitiation.” (1996) Nature 382, 822-826): pG5IL2SX (drives transcription of bacterial secreted alkaline phosphatase (SeAP) through GAL4 DNA binding […] elements), pBJ5-GF3E (which expresses the GAL4 DNA binding domain fused to three copies of human FKBP12), and pBJ5-FRBVP. (which expresses a FRB fusion with the Herpes Simplex Virus VP16 Activation domain) A FRB*-VP16 fusion protein which consists of modified FRB protein fused to the VP16 activation domain was also used selectively. Transfected cells were distributed equally to 96 well plates and were incubated at 37° C. for 24 to 36 hours before media was supplemented with drug in a dilution curve in which each point is represented in quadruplicate. Cells were incubated at 37° C. for an additional 24 hours followed by a 2-hour treatment at 65° C. to inactivate endogenous phosphatases. Each well was supplemented with 100μL of 1 mM methylumbelliferylphosphate dissolved in 2 M diethanolamine buffered to pH 10.0 with carbonate and incubated at 37° C. for 16 hours. Fluorescence was measured with a Fluoroscan (ICN) plate reader at 355 nm transmission and 455 nm emission using Deltasoft software.
Drug efficacy was determined in a three-plasmid transcriptional switch reporter assay. ˜106 COS1 cells were coelectroporated with 2 μg of the DNA binding construct pBJ5-Gal4-FKBP(3), 2 μg pBJ5-VP16 (or the relevant mutant FRB) and 2 μg of the Gal4-SeAP reporter. Electroporation details are available upon request. […] SeAP activity was measured by fluorescence with a Spectamax M2 fluorometer (Molecular Devices, Sunnyvale, Calif.) with transmission set at 355 nm and emmission set at 460 nm. Data was analysed with Softmax Pro (Molecular Devices), Microsoft Excel and Prism 3 (GraphPad Software).
A general note: Reporter assays use an easily measured gene product as a stand-in for the process of interest.

For a further series, the target named is T3, GSK-3βFRB* (Homo sapiens, UniProt P42345+P62942, K2095P/T2098L/W2101F).
T3 construct: The minimal FRB domain comprises amino acids 2025-2114 of human mTor; endogenous in cells; host or cells: lysates of MEFs from GSK-3β^FRB* knock-in mice; immunoprecipitated with anti-GSK-3β
The series is described as follows: GSK-3β immunoprecipitation-kinase assay on MEF lysates. Format: biochemical, mouse. The note with it: treated GSK-3βFRB*/FRB* cells.

In series [1] the test system is T4, GSK-3βFRB* (K2095P/T2098L/W2101F).
T4 construct: The minimal FRB domain comprises amino acids 2025-2114 of human mTor; endogenous in cells; host or cells: lysates of MEFs from GSK-3β^FRB* knock-in mice; immunoprecipitated with anti-GSK-3β
The series is described as above. The note with it: treated versus untreated GSK-3βFRB*/FRB* MEFs. Format: biochemical, mouse.

A further series concerns embryos. Briefly: Overt effects on mother and embryos after IP injection of pregnant mice. The note with it: 200 mg/kg/day, 3 IP injections every 12 hours, E10.0 to E11.5. Format: in vivo, mouse. Here is the method: GSK-3β^+/FRB* mice were intercrossed and the date of vaginal plug observation was set as E0.5. At E9.5, the stage of embryonic development was confirmed by ultrasonography (Chang, C. P. et al. “Sonographic Staging of the Developmental Status of Mouse Embryos in Utero.” (2003) Published in Genesis 36, 7-11) and mice were weighed. Drug administration commenced at E10.0. […] 100 μL was immediately injected intraperitoneally (IP) to pregnant females with injections repeated twice more at 12 hour intervals to E11.5 when mice were sacrificed, and embryos and organs were dissected and frozen in […]. Tissues anterior to the embryonic forelimbs of individual embryos were used for preparation of protein extracts with the remainder used to determine the concentration of drug and for genotyping.

For the next series, the target named is T5, FRB*Pax6 (UniProt P26883+P42345, K2095P/T2098L/W2101F).
T5 construct: The minimal FRB domain comprises amino acids 2025-2114 of human mTor; from tissue; host or cells: e13.5 cortical neural cultures (A14) and cultured whole embryos (A15) from Pax6^FRB* knock-in mice; fusion expressed from the targeted endogenous locus
Briefly: Stabilization of FRB*Pax6 in cortical neural cultures (Western blot). It counts as cell-based, mouse. The text has this:
e13.5 embryos were harvested from a Pax6^FRB*/+ intercross and cortical hemispheres isolated from individuals identified by eye and craniofacial morphology and later confirmed by genotype specific PCR. Pia were removed and neocortex dissected from […] in Hank's balanced salt solution (HBSS). Tissue was minced roughly and placed in centrifuge tubes containing HBSS+20% foetal calf serum. Tissue pieces were allowed to settle and the media was replaced first with HBSS+serum then HBSS alone. The tissue was incubated with 0.1% trypsin+2 mM EDTA 10 minutes at 37° C. then the reaction stopped with HBSS+serum. Cells were triturated to a suspension and plated on 24 well plates coated with matrigel in DMEM (high glucose) supplemented with FCS (5%), N2 (GIBCO) and antibiotics.
Extracts were prepared in RIPA buffer, protein quantified by Bradford Assay (Biorad) and 10 μg of total protein resolved by SDS-PAGE, transferred to PVDF (Millipore) filters and Pax6 or HSP90 identified with specific antibodies (1:1000, Covance and 1:2500 Transduction Laboratories, respectively) incubated 1 hour in TBS+10% nonfat milk. Secondary conjugated to horse radish peroxidase were purchased from Jackson immunochemicals and blots were developed by chemiluminescence (Amersham).
(A western blot detects proteins with antibodies after separation by electrophoresis.)

The next series has as its target T6, KLW (Homo sapiens, UniProt P42345+P62942, T2098L).
T6 construct: The minimal FRB domain comprises amino acids 2025-2114 of human mTor; expressed in transfected cells; host or cells: COS1 cells
The series is described as follows: SeAP transcriptional switch assay, FRB mutant KLW. It counts as cell-based. How it is done:
as §1

T2 sequence (P42345 2025-2114): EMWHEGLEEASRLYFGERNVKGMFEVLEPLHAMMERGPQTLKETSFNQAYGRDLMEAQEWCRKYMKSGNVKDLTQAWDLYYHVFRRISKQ
T2 sequence (P62942 whole entry, the tested form may be a part): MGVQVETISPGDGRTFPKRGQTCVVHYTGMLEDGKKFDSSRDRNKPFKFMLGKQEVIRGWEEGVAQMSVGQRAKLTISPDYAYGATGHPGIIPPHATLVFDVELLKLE
T5 sequence (P42345 2025-2114 K2095P/T2098L/W2101F): as the sequence (P42345 2025-2114) above, with K71P, T74L, W77F counted along it
T5 sequence (P26883 2-108): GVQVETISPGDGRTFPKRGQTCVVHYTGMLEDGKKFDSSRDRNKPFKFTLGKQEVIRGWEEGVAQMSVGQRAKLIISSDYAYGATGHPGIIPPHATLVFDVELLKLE
T1 sequence (P42345 2025-2114 W2101F): as the sequence (P42345 2025-2114) above, with W77F counted along it
T1 sequence (P62942 whole entry, the tested form may be a part): as the sequence (P62942 whole entry, the tested form may be a part) above
T6 sequence (P42345 2025-2114 T2098L): as the sequence (P42345 2025-2114) above, with T74L counted along it
T6 sequence (P62942 whole entry, the tested form may be a part): as the sequence (P62942 whole entry, the tested form may be a part) above
T4 sequence (P42345 2025-2114 K2095P/T2098L/W2101F): as the sequence (P42345 2025-2114) above, with K71P, T74L, W77F counted along it
T4 sequence (P62942 whole entry, further chain, the tested form may be a part): as the sequence (P62942 whole entry, the tested form may be a part) above
T3 sequence (P42345 2025-2114 K2095P/T2098L/W2101F): as the sequence (P42345 2025-2114) above, with K71P, T74L, W77F counted along it
T3 sequence (P62942 whole entry, the tested form may be a part): as the sequence (P62942 whole entry, the tested form may be a part) above

In the case of “C20-(R or S)-methallylrapamycin [C20-MaRap]”, on KTF, the “binding to KTF” value was “binds efficiently”. Moreover, the EC50 is 0.009 µM on KTF (single mutation Trp2101 to Phe); 0.226 µM and > 0.2 µM on FRB (wild-type FRB(KTW)-VP16, ±95% confidence intervals); 0.022 µM at KLW (single mutation Thr2098 to Leu, read-out: affinity, KLW). The Kd (usually the equilibrium constant for the complex coming apart) on FRB (wild-type FRB) was above 0.2 µM. Further, the “kinase activity relative to wild-type cells” value on GSK-3βFRB* is reported as “approximately 60%”. In series [1], the “increase in GSK-3β kinase activity” value is on record as “over 7 fold”. Further, the “overt effect on mother and embryos” value in the series on embryos is “Neither the mother nor the embryos were overtly affected”. Further, the “FRB*Pax6 protein level” value on FRB*Pax6 (Pax6FRB*/FRB* cortical neural cultures, increasing quantities, 36 hours) is “dose-dependent increase in FRB*Pax6 protein”. Besides, the “effect on wild-type Pax6 expression” value on FRB*Pax6 (cortical neural cultures) is on record as “no effect”. The “kinetics of FRB*Pax6 turnover” value at FRB*Pax6 (data not shown) is “markedly slowed”. For the same substance, the “improvement of affinity of KLW over wild-type” value at KLW (KLW versus wild-type FRB) is listed as “about 5 fold”.
